For one assay, the target named is T1, AXL (Homo sapiens, UniProt P30530).
T1 sequence (P30530 26-894): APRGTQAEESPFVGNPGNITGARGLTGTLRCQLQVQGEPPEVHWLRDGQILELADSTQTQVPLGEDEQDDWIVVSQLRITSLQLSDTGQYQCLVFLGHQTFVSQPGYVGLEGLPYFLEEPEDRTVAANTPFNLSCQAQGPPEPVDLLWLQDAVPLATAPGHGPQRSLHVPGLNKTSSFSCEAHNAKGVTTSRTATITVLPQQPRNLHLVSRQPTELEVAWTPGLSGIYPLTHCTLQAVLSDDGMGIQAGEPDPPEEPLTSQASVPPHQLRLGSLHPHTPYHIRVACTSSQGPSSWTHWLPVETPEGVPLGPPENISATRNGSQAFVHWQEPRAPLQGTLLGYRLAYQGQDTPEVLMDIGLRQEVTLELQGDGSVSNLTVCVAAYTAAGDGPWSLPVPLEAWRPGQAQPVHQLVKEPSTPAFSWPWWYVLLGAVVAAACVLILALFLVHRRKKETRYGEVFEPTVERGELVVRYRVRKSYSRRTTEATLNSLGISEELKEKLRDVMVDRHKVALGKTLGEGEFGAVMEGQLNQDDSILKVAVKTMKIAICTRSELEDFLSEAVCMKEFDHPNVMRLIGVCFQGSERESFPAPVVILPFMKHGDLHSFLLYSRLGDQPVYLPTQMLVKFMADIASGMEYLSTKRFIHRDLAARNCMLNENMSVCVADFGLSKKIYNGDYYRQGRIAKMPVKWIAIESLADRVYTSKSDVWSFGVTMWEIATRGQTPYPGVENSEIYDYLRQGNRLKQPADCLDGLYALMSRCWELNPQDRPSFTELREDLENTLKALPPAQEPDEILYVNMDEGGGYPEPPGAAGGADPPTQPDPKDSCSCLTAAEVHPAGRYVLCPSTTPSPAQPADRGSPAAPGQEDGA
Description: TR-FRET kinase activity assay, AXL. In kind it is biochemical. Conditions: ATP at Km, 60 minutes. Here is the method:
(§1) IC50 values for compound inhibition of AXL, FLT3, MERTK and TYRO3 activity were determined by using a TR-FRET activity assay. A polypeptide substrate with a fluorescent label is phosphorylated on a tyrosine by each enzyme, where the now phosphorylated product is bound by a Europium-labeled antibody specific to that phosphorylation site. The proximity between the antibody and the substrate gives a signal known as TR-FRET. As the enzyme is inhibited by compound, less phosphorylated peptide product is made causing a decrease in overall signal.
(§2) Activity assays were performed in a 384-well, small volume, black microplates in an active enzyme volume of 10 μL and final developed volume of 20 μL. Final assay conditions are 50 mM HEPES pH 7.5, 10 mM MgCl2, 1 mM EGTA, 0.01% Brij 35 and 1 mM DTT all at RT. Enzyme, substrate labeled peptide and compound are mixed, and then the reaction is initiated with the addition of ATP at Km concentration for each enzyme. The reaction is allowed to run 60 minutes and then quenched with a 12.5 mM EDTA (ethylenediamine tetraacetic acid) solution. The plate is then developed with the addition of Europium labeled antibody for a final volume of 20 μL and is then incubated for 30 minutes in darkness. Plates are read in a Pherastar plate reader. Data is analyzed in GraphPad PRISM.
(§3) The results of these assays are shown in Table 1, below, wherein “No.” designates compound number (FIG. 1); “A” represents a value of ≤100 nM; “B” a value of >100 nM and ≤1 μM; “C” a value of >1 μM and ≤10 μM; “D” a value of >10 μM; “ND” is not determined. The ratio of Mer to FLT3 is calculated as follows: FLT3 IC50/Mer IC50. “+” represents a ratio of >2.0 and <10; “++” represents a ratio of between 10 and 100; and “+++” represents a ratio of >100.
(TR-FRET usually uses a lanthanide donor and a delayed reading to cut background.)

The next assay deals with T2, TYRO3 (Homo sapiens, UniProt Q06418).
T2 sequence (Q06418 41-890): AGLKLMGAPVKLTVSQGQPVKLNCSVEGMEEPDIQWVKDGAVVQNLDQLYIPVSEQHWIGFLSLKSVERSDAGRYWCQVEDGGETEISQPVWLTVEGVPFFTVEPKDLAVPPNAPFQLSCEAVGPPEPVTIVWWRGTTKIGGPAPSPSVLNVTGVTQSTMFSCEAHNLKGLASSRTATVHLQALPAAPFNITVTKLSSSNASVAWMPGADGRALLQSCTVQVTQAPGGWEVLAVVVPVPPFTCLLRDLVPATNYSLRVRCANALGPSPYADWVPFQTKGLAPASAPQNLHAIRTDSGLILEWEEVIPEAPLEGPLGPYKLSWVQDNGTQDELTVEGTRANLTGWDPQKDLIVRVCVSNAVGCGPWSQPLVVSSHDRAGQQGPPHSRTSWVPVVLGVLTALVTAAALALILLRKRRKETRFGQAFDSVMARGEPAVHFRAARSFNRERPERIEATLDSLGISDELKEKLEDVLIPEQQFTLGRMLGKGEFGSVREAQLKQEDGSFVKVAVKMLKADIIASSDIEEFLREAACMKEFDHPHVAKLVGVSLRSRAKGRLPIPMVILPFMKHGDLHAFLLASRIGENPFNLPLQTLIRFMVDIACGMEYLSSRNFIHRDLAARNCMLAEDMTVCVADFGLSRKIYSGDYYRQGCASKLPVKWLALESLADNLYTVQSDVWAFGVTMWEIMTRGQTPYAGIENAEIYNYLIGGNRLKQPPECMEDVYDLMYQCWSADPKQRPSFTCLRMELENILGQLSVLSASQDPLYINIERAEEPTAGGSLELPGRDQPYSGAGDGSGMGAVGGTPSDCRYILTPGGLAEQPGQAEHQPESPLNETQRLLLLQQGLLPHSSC
Description: TR-FRET kinase activity assay, TYRO3. The assay is classed as biochemical. Conditions: ATP at Km, 60 minutes. Here is the method: as §1, §2, §3

Turning to `COC[C@H](C)Nc1ncc2c(-c3cnn(Cc4cccnc4)c3)cc([C@H]3CC[C@H](O)CC3)n2n1` [Compound 220], the half-maximal inhibitory concentration (IC50) against AXL and at TYRO3 was ≤ 100 nM each time.

Consider `COCC(C)Nc1ncc2c(-c3cnn(C4COC4)c3)cc(C3CCC(O)CC3)n2n1` (stereo not shown) [Compound 221], for which the IC50 against AXL and at TYRO3 was ≤ 100 nM throughout.

For the compound `COC[C@H](C)Nc1ncc2c(-c3cnn(CCC#N)c3)cc([C@H]3CC[C@H](O)CC3)n2n1` [Compound 222], the concentration for half-maximal inhibition (IC50) against AXL and at TYRO3 was ≤ 100 nM in each case.

Take `COC[C@H](C)Nc1ncc2c(-c3cccc(CN4CCC(F)(F)C4)c3)cc([C@H]3CC[C@H](O)CC3)n2n1` [Compound 223]: the IC50 was 100 to 1000 nM at AXL and ≤ 100 nM against TYRO3.

Consider `COC[C@H](C)Nc1ncc2c(-c3cccc(CN4CC[C@@H](F)C4)c3)cc([C@H]3CC[C@H](O)CC3)n2n1` [Compound 224], for which the IC50 is 100 to 1000 nM on AXL and ≤ 100 nM against TYRO3.

As for `COCC(C)Nc1ncc2c(-c3cccc(CN4CCC(F)C4)c3)cc(C3CCC(O)CC3)n2n1` (stereo not shown) [Compound 225], the half-maximal inhibitory concentration (IC50) against AXL and against TYRO3 was ≤ 100 nM each time.

Consider `COC[C@H](C)Nc1ncc2c(-c3ccc(C(=O)N4CCN(C)CC4)nc3)cc([C@H]3CC[C@H](O)CC3)n2n1` [Compound 226], for which the IC50 against AXL is 100 to 1000 nM; on TYRO3 it was ≤ 100 nM.

`COC[C@H](C)Nc1ncc2c(-c3ccc(C(=O)N4CCOCC4)nc3)cc([C@H]3CC[C@H](O)CC3)n2n1` [Compound 227]: the IC50 against AXL was 100 to 1000 nM; against TYRO3, ≤ 100 nM.

`COC[C@H](C)Nc1ncc2c(-c3ccc(C(=O)NC(C)C)nc3)cc([C@H]3CC[C@H](O)CC3)n2n1` [Compound 228, 5-(7-((1r,4S)-4-hydroxycyclohexyl)-2-(((S)-1-methoxypropan-2-yl)amino)pyrrolo[2,1-f][1,2,4]triazin-5-yl)-N-isopropylpicolinamide]: the IC50 was 100 to 1000 nM at AXL and ≤ 100 nM against TYRO3.

Turning to `COC[C@H](C)Nc1ncc2c(-c3ccc(CN4CCOCC4)nc3)cc([C@H]3CC[C@H](O)CC3)n2n1` [Compound 230], the IC50 is 100 to 1000 nM against AXL and ≤ 100 nM on TYRO3.

Turning to `COC[C@H](C)Nc1ncc2c(-c3cncc(C)c3)cc([C@H]3CC[C@H](O)CC3)n2n1` [Compound 231], the results for the IC50 against AXL and on TYRO3 were 100 to 1000 nM and ≤ 100 nM, respectively.

Turning to `COC[C@H](C)Nc1ncc2c(-c3cncc(C(=O)N4CCCC4)c3)cc([C@H]3CC[C@H](O)CC3)n2n1` [Compound 232], the IC50 against AXL is 100 to 1000 nM; on TYRO3 it was ≤ 100 nM.

With `COC[C@H](C)Nc1ncc2c(-c3cncc(C(=O)N4CCOCC4)c3)cc([C@H]3CC[C@H](O)CC3)n2n1` [Compound 233], the IC50 at AXL is 100 to 1000 nM; on TYRO3, ≤ 100 nM.

Regarding `COC[C@H](C)Nc1ncc2c(-c3cncc(C(=O)N4CCN(C)CC4)c3)cc([C@H]3CC[C@H](O)CC3)n2n1` [Compound 234], the half-inhibitory concentration (IC50) against AXL is 100 to 1000 nM; on TYRO3, ≤ 100 nM.

Take `COC[C@H](C)Nc1ncc2c(-c3cnn(CC(=O)NC(C)C)c3)cc([C@H]3CC[C@H](O)CC3)n2n1` [Compound 235]: the results for the IC50 against AXL and at TYRO3 were 100 to 1000 nM and ≤ 100 nM, respectively.

With `COC[C@H](C)Nc1ncc2c(-c3cnn(CC(=O)N[C@H]4CCOC4)c3)cc([C@H]3CC[C@H](O)CC3)n2n1` [Compound 237], the half-maximal inhibitory concentration (IC50) was 100 to 1000 nM against AXL and ≤ 100 nM at TYRO3.

As for `COC[C@H](C)Nc1ncc2c(-c3cnn(CC(=O)N(C)C)c3)cc([C@H]3CC[C@H](O)CC3)n2n1` [Compound 238], the IC50 against AXL is 100 to 1000 nM; against TYRO3, ≤ 100 nM.

Take `COC[C@H](C)Nc1ncc2c(-c3cnn(CC(=O)N4CCCC4)c3)cc([C@H]3CC[C@H](O)CC3)n2n1` [Compound 239]: the 50% inhibitory concentration (IC50) against AXL and on TYRO3 was ≤ 100 nM in each case.

Consider `COC[C@H](C)Nc1ncc2c(-c3cnn(CC(=O)N4CCN(C)CC4)c3)cc([C@H]3CC[C@H](O)CC3)n2n1` [Compound 240], for which the IC50 was 100 to 1000 nM against AXL and ≤ 100 nM at TYRO3.

On to `CNC(=O)Cn1cc(-c2cc([C@H]3CC[C@H](O)CC3)n3nc(N[C@@H](C)COC)ncc23)cn1` [Compound 241], for which the IC50 is 100 to 1000 nM at AXL and ≤ 100 nM on TYRO3.

Take `COC[C@H](C)Nc1ncc2c(-c3cnn([C@@H]4CCOC4)c3)cc([C@H]3CC[C@H](O)CC3)n2n1` [Compound 242]: the concentration for half-maximal inhibition (IC50) on AXL and against TYRO3 was ≤ 100 nM each time.

As to `COC[C@H](C)Nc1ncc2c(-c3cnn([C@H]4CCOC4)c3)cc([C@H]3CC[C@H](O)CC3)n2n1` [Compound 243], the IC50 at AXL and on TYRO3 was ≤ 100 nM each time.

Turning to `CC(CCF)Nc1ncc2c(-c3ccc(CN4CCOCC4)cc3)cc(C3CCC(O)CC3)n2n1` (stereo not shown) [Compound 244], the half-maximal inhibitory concentration (IC50) against AXL and against TYRO3 was ≤ 100 nM each time.

For the compound `CNC(=O)c1cncc(-c2cc([C@H]3CC[C@H](O)CC3)n3nc(N[C@@H](C)COC)ncc23)c1` [Compound 245], the concentration for half-maximal inhibition (IC50) against AXL is 100 to 1000 nM; at TYRO3, ≤ 100 nM.

Take `COC[C@H](C)Nc1ncc2c(-c3ccc(C)nc3)cc([C@H]3CC[C@H](O)CC3)n2n1` [Compound 246]: the half-inhibitory concentration (IC50) on AXL and against TYRO3 was ≤ 100 nM in each case.

For `COC[C@H](C)Nc1ncc2c(-c3cncc(C(N)=O)c3)cc([C@H]3CC[C@H](O)CC3)n2n1` [Compound 247], the IC50 against AXL is 100 to 1000 nM; on TYRO3 it was ≤ 100 nM.

Turning to `COC[C@H](C)Nc1ncc2c(-c3cn(C[Si](C)(C)C)nn3)cc([C@H]3CC[C@H](O)CC3)n2n1` [Compound 248], the IC50 on AXL is 100 to 1000 nM; at TYRO3, ≤ 100 nM.

On to `COC[C@H](C)Nc1ncc2c(-c3ccc4c(c3)NC(=O)C4)cc([C@H]3CC[C@H](O)CC3)n2n1` [Compound 249], for which the IC50 on AXL and against TYRO3 was ≤ 100 nM each time.

For the compound `COC[C@H](C)Nc1ncc2c(-c3cn(C)nn3)cc([C@H]3CC[C@H](O)CC3)n2n1` [Compound 250, (trans)-4-(2-(((S)-1-methoxypropan-2-yl)amino)-5-(1-methyl-1H-1,2,3-triazol-4-yl)pyrrolo[2,1-f][1,2,4]triazin-7-yl)cyclohexanol], the 50% inhibitory concentration (IC50) was 100 to 1000 nM at AXL and ≤ 100 nM on TYRO3.

Usually IC50 stands for the concentration that inhibits the measured activity by half.
